Experiments:
[1] = biological target: purified human, His-tagged PRC2 complex (Homo sapiens, UniProt O75530+Q15910); experiment: Hot Spot HMT assay: inhibition of PRC2 enzymatic activity (transfer of tritiated methyl from SAM to core histone, filter binding); type: biochemical; conditions: Inhibition of PRC2-mediated enzymatic activity; 10 nM PRC2 complex, 0.05 mg/ml core histone H3, 1 uM 3H-SAM, 1 hr at 30°C
In short: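 Five-subunit complex (His-EZH2, Flag-EED, His-SUZ12, His-AEBP2, His-RbAp48) at 10 nM with 0.05 mg/ml core histone H3, pH 8 Tris buffer, 1% DMSO; 20 min compound pre-incubation at 30°C. Started with 1 uM [3H]-SAM, 1 hr at 30°C; tritiated H3 counted by scintillation. Compounds diluted from 1.0 µM top concentration.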

[2] = tested on: PRC2-mediated histone H3 methylation; experiment: Tri-Methyl Histone H3 (Lys 27) Sandwich ELISA in Pfeiffer cells: inhibition of PRC2-mediated histone H3 methylation; type: cell-based, human; conditions: Inhibition of EZH2-mediated histone H3 trimethylation, Pfeiffer cells (EZH2 A677G), 96 hours incubation
In short: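 Pfeiffer DLBCL cells (EZH2 A677G mutant) treated with 3-fold serial dilutions, 1µM to 0.15 nM final, for 96 hours at 37°C. Acid (0.4M HCl) histone extracts, neutralized, assayed by H3K27me3 sandwich ELISA with HRP/TMB read at 450 nm.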

Karpas 422 cells = experiment: Karpas 422 cell viability, CTG (Cell Titre Glo) assay; type: cell-based, human; conditions: Inhibition of proliferation of Karpas 422 cells (EZH2 Y641N), viability measured Day 4, Day 7 or Day 11, time point of the tabulated values not stated
In short: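 Karpas 422 cells (EZH2 Y641N, DLBCL) plated at 1000 cells/well in RPMI with 20% FBS, exposed to compound 10µM down to 1.5nM in 3-fold steps at 37 °C. Viability by CellTiter-Glo on Days 4, 7 and 11; Day 11 plates re-fed with fresh medium and compound on Day 7. IC50 per time point.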

Chain of purified human, His-tagged PRC2 complex (Q15910 whole entry): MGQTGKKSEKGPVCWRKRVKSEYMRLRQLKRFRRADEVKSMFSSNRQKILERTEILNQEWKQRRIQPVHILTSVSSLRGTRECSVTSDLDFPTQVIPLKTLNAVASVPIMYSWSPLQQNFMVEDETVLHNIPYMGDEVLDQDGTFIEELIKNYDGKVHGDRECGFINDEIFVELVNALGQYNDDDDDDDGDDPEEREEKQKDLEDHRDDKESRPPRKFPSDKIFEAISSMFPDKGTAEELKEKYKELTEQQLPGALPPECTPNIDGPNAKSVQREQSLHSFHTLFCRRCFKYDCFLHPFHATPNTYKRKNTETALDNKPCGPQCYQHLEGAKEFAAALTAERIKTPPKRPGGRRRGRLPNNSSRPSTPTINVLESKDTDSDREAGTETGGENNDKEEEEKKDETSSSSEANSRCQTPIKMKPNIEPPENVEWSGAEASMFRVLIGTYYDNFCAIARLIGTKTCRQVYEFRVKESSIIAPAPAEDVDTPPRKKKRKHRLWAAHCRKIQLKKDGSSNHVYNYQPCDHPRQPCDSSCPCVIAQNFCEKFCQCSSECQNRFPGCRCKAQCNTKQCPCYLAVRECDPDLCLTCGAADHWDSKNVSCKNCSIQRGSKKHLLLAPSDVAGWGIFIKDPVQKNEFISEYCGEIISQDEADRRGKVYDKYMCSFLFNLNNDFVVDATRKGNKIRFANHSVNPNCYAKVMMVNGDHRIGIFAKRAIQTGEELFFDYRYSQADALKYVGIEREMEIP
Chain of purified human, His-tagged PRC2 complex (O75530 whole entry): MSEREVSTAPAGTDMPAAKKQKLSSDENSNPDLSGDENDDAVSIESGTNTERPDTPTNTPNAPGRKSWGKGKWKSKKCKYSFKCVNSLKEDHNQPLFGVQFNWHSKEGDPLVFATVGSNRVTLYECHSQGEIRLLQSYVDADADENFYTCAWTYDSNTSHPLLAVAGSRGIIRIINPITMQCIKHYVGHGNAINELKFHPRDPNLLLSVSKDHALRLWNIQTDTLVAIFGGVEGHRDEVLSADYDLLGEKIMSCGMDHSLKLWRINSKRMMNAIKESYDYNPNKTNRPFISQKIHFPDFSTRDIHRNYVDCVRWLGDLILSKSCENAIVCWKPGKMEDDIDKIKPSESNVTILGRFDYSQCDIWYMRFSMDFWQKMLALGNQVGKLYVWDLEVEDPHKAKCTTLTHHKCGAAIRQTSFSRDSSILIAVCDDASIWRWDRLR
Chain of purified human, His-tagged PRC2 complex (Q15022 whole entry partner): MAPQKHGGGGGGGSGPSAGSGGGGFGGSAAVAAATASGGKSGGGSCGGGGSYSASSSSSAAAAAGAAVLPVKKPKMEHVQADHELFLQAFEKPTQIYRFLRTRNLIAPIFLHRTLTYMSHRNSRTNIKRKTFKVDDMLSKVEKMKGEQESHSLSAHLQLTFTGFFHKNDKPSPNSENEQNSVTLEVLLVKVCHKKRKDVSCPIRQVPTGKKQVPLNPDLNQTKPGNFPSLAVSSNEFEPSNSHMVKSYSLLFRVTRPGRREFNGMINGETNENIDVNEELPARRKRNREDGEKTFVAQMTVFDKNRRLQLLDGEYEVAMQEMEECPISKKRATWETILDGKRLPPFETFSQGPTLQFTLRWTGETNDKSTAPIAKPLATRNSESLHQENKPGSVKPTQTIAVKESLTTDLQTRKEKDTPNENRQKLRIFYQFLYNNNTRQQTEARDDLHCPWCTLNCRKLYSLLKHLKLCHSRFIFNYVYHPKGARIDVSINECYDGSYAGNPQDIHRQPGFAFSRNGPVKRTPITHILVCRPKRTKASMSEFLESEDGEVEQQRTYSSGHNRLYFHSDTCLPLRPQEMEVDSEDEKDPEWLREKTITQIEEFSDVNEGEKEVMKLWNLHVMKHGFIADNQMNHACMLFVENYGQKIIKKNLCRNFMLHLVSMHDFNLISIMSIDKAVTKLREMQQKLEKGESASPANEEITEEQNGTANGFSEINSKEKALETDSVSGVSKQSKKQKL
Chain of purified human, His-tagged PRC2 complex (Q6ZN18 whole entry partner): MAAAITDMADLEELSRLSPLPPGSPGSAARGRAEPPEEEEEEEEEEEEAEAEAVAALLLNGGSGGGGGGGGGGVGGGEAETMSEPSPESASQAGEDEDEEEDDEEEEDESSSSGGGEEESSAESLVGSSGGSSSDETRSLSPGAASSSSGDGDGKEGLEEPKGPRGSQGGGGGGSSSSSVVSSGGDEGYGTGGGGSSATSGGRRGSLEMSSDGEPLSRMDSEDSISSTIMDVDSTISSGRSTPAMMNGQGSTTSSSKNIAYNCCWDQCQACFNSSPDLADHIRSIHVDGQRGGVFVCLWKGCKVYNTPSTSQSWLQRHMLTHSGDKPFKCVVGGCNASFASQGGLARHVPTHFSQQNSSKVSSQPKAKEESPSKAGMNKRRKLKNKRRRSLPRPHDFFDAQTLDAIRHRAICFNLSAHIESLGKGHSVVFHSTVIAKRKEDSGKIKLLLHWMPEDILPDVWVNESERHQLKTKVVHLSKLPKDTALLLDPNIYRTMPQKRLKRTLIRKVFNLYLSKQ
Chain of purified human, His-tagged PRC2 complex (Q09028 whole entry partner): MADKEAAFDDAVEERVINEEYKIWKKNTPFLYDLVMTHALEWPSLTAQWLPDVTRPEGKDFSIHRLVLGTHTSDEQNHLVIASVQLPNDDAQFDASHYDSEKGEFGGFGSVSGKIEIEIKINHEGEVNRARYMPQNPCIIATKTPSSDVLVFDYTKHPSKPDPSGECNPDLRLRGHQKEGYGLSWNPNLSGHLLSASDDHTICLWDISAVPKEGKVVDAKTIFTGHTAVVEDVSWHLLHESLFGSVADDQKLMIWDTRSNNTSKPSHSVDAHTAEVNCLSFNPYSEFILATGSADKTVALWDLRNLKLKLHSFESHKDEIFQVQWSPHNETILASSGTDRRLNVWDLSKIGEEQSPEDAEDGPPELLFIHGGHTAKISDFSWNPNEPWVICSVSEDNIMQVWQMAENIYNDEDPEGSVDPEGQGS

Row | Compound | IC50 [1] [nM] | IC50 ([2]; Homo sapiens) [nM] | IC50 (Karpas 422 cells; Homo sapiens) [nM] | IC50 [2] [nM] | IC50 (Karpas 422 cells) [nM]
1 | N#Cc1cn2c(NCc3c(F)ccc4c3CCO4)ncc(-c3ccc(C4CCCN4)cc3)c2n1 (stereo not drawn) [Example 204, 5-(((5-fluoro-2,3-dihydrobenzofuran-4-yl)methyl)amino)-8-(4-(pyrrolidin-2-yl)phenyl)imidazo[1,2-c]pyrimidine-2-carbonitrile] | 100 to 500 | ≤ 100 | ≤ 250 |  | 
2 | N#Cc1cn2c(NCc3c(F)ccc4c3CCO4)ncc(-c3ccc(S(N)(=O)=O)cc3)c2n1 [Example 47, 4-(2-cyano-5-(((5-fluoro-2,3-dihydrobenzofuran-4-yl)methyl)amino)imidazo[1,2-c]pyrimidin-8-yl)benzenesulfonamide] | < 100 | ≤ 100 | ≤ 250 |  | 
3 | COCCOc1ncc(-c2cnc(NCc3c(F)ccc4c3CCO4)n3cc(C#N)nc23)cn1 [Example 191, 5-(((5-fluoro-2,3-dihydrobenzofuran-4-yl)methyl)amino)-8-(2-(2-methoxyethoxy)pyrimidin-5-yl)imidazo[1,2-c]pyrimidine-2-carbonitrile] | 100 to 500 | 100 to 500 | 250 to 500 |  | 
4 | [2H]C([2H])(c1ccc(-c2cnc(NCc3c(F)ccc4c3CCO4)n3cc(C#N)nc23)c(C)c1)N(C)C [Example 173, 8-(4-((dimethylamino)methyl-d2)-2-methylphenyl)-5-(((5-fluoro-2,3-dihydrobenzofuran-4-yl)methyl)amino)imidazo[1,2-c]pyrimidine-2-carbonitrile] | < 100 | ≤ 100 | ≤ 250 |  | 

Results, then the compound that gave them:

Row | IC50 [1] [nM] | IC50 ([2]; Homo sapiens) [nM] | IC50 (Karpas 422 cells; Homo sapiens) [nM] | IC50 [2] [nM] | IC50 (Karpas 422 cells) [nM] | Compound
5 | < 100 | 100 to 500 | 250 to 500 |  |  | N#Cc1cn2c(NCc3c(F)ccc4c3CCO4)ncc(-c3cc[nH]c(=O)c3)c2n1 [Example 218, 5-(((5-fluoro-2,3-dihydrobenzofuran-4-yl)methyl)amino)-8-(2-oxo-1,2-dihydropyridin-4-yl)imidazo[1,2-c]pyrimidine-2-carbonitrile]
6 | < 100 |  |  | ≤ 100 | ≤ 250 | 5-(2-cyano-5-(((5-fluoro-2,3-dihydrobenzofuran-4-yl)methyl)amino)imidazo[1,2-c]pyrimidin-8-yl)-1-methyl-1H-pyrazole-3-carboxylic acid [Example 157]
7 | < 100 | ≤ 100 | ≤ 250 |  |  | CN1CCCC1c1ccc(-c2cnc(NCc3c(F)ccc4c3CCO4)n3cc(C#N)nc23)cc1 (stereo not drawn) [Example 160, 5-(((5-fluoro-2,3-dihydrobenzofuran-4-yl)methyl)amino)-8-(4-(1-methylpyrrolidin-2-yl)phenyl)imidazo[1,2-c]pyrimidine-2-carbonitrile]
